Test results: patent US20250041245A1, “ENDOXIFEN FOR TREATMENT OF CANCERS” (Atossa Therapeutics, Inc., priority 2021, published 2025)
“And” between values parts separate entries of the source, which are not always exact repeats. Equal entries are not always repeated. “Also recorded” adds a separate entry of the source.

Tests used:
Assay type in all cases: cell-based, human
Parameters in all cases: key to Personalization Category: Personalization categories range from High, Good, Moderate, Low, to None; Personalization categories range from High, Good, Moderate, Low, to None; Personalization categories range from High, Good, Moderate, Low, to None; Personalization categories range from High, Good, Moderate, Low, to None; Personalization categories range from High, Good, Moderate, Low, to None; key to Sensitivity Category: Sensitivity categories range from High, Good, Moderate, Low, to None; Sensitivity categories range from High, Good, Moderate, Low, to None; Sensitivity categories range from High, Good, Moderate, Low, to None; Sensitivity categories range from High, Good, Moderate, Low, to None; Sensitivity categories range from High, Good, Moderate, Low, to None; AUC: unit not given beside the values
[1] = tested on: patient-derived tumor organoids (PDTOs), neuroblastoma; test: Endoxifen screen in PDTOs: neuroblastoma; conditions: each line one patient sample; for IC50: four-parameter logistic fit
Description: (§1) This example describes screening endoxifen in patient-derived tumor organoids. Endoxifen was tested as a single agent on tumor organoids derived from patients diagnosed with various cancer types using a personalized cancer treatment screening assay (PARIS© Test, SEngine Precision Medicine). The screen utilized patient-derived tumor organoids (PDTOs) along with high-throughput drug screening and machine learning-guided data analysis to quantify the efficacy of endoxifen against samples derived from individual patients diagnosed with various cancer types. PDTOs are self-organizing, three-dimensional organoid structures that recapitulate structural, functional, and genomic aspects of in vivo organs. The PDTOs were grown in culture from patient tumor biopsy samples.
(§2) Fresh patient biopsy samples received following surgery were cleaned and purified. Immune cells (e.g., lymphocytes, blood cells), cancer-associated fibroblasts, and other non-tumor cells were removed to establish pure PDTOs for endoxifen testing. The tumor organoids were grown and expanded by supplying organ- and patient-specific growth factors and nutrients. The PDTOs were treated with increasing concentrations of endoxifen ranging from about 30 nM to about 10 μM, and the drug response was measured using a luminescence readout. A lower luminescence was indicative of a stronger drug response.
(§3) The results were analyzed using a “SEngine Precision Medicine” (SPM) scoring system to assess the sensitivity and personalization of each tumor organoid to endoxifen. The SPM score correlates with clinical outcomes, such that a higher SPM score for a specific PDTO-drug combination predicts a more favorable clinical outcome following treatment of the corresponding patient with the tested drug.
(§4) This example describes testing endoxifen efficacy against 17 distinct cancer types in patient-derived tumor organoids (PDTOs). Screening of PDTOs was performed as described in EXAMPLE 1. For each PDTO sample, the drug response was measured using a luminescent readout over a range of endoxifen concentrations. The drug response was evaluated based on the area under the fitted dose response curve (AUC) and the SPM scoring system. AUC values were normalized for each PDTO. Briefly, data points at each drug concentration were first normalized to a negative control, then a dose response drug curve was approximated using a four-parameter logistic model fitted to the normalized data points. The area under the curve was calculated from the normalized curve. Normalization allowed for comparison of AUC values between patient samples. The SPM scores were based on machine learning models that incorporate values for how well the drug kill patient cells (sensitivity metric), the relative drug responses of a patient to all other patients in a sample database (personalization metric), and knowledge of clinical outcomes for patients that had been evaluated with the personalized cancer screening assay (PARIS® Test, SEngine Precision Medicine).
(§5) The SPM scoring system evaluated whether a PDTO was unresponsive or responsive to endoxifen and the degree of drug response for PDTOs that were responsive to endoxifen. The SPM scoring system generated metrics an SPM score, predictive of clinical outcome, overall drug response (response category), drug sensitivity (sensitivity category), and drug personalization (personalization category). SPM scores ranged from 1-15, corresponding to the following drug response categories: no response (SPM 1-8), low response (SPM 9), moderate response (SPM 10-11), good response (SPM 12-13), and exceptional response (SPM 14-15). […] Moderate to good drug responses (SPM 10-13) may indicate that a drug has clinical relevance, possibly in combination with other drugs. The sensitivity category was determined from the sensitivity metric and is a measure of overall cell death of a patient's cells in response to endoxifen at six concentrations. […]

[2] = tested on: patient-derived tumor organoids (PDTOs), colorectal cancer; test: Endoxifen screen in PDTOs: colorectal cancer; conditions: each line one patient sample
Description: as §1, §2, §3, §4, §5

[3] = tested on: patient-derived tumor organoids (PDTOs), endometrial carcinoma; test: Endoxifen screen in PDTOs: endometrial carcinoma
Description: as §1, §2
The results were analyzed using a “SEngine Precision Medicine” (SPM) scoring system to assess the sensitivity and personalization of each tumor organoid to endoxifen. […]
as §4, with “Screening of PDTOs was performed as described in EXAMPLE 1.” left out, “AUC values were normalized for each PDTO. Briefly, data points at each drug concentration were first normalized to a negative control, then a dose response drug curve was approximated using a four-parameter logistic model fitted to the normalized data points.” left out, “Normalization allowed for comparison of AUC values between patient samples.” left out
The SPM scoring system evaluated whether a PDTO was unresponsive or responsive to endoxifen and the degree of drug response for PDTOs that were responsive to endoxifen. […] The sensitivity category was determined from the sensitivity metric and is a measure of overall cell death of a patient's cells in response to endoxifen at six concentrations. […]

[4] = normalized area under fitted dose response curve

SMILES: CC/C(=C(\c1ccc(O)cc1)c1ccc(OCCNC)cc1)c1ccccc1 [Endoxifen, 4-hydroxy-N-desmethyltamoxifen]
- IC50 ([1]; Homo sapiens): 5.73 µM
- Personalization Category [1]: Low and Moderate and None
- Response Category [1]: Low (low response (SPM 9)); also recorded: Moderate (moderate response (SPM 10-11)); also recorded: None (no response (SPM 1-8))
- Sensitivity Category [1]: Low and None
- IC50 [1]: 5.87 µM and 7.18 µM
- AUC [1, 4]: 0.8848 and 0.8184 and 0.9511
- SPM Score ([1]; score range 1-15): 9 and 10 and 1
- Personalization Category [2]: None and Low and Good and Moderate
- Response Category [2]: None (no response (SPM 1-8)); also recorded: Low (low response (SPM 9)); also recorded: Moderate (moderate response (SPM 10-11))
- Sensitivity Category [2]: None and Low
- IC50 ([2]; four-parameter logistic fit): 7.16 µM and 9.23 µM and 7.23 µM and 5.61 µM and 10 µM and 5.65 µM and 4.72 µM and 3.62 µM and 8.86 µM and 5.67 µM and 6.74 µM and 9.61 µM and 9.09 µM
- AUC [2, 4]: 0.9517 and 0.9919 and 1.0338 and 0.9902 and 1.0377 and 0.9305 and 0.8841 and 0.8215 and 0.9346 and 0.8357 and 0.8866 and 0.9755 and 0.9804 and 0.9752 and 1.0467
- SPM Score ([2]; score range 1-15): 1 (9×) and 3 and 5 and 9 (2×) and 11 and 10
- Personalization Category ([3]; patient 39): None
- Sensitivity Category ([3]; patient 39): None
- AUC ([3]; patient 39, normalized area under fitted dose response curve): 1.0102
- SPM Score ([3]; patient 39, score range 1-15): 1
